Laboratory results: US11591301B2, “Indoleamine-2,3-dioxygenase inhibitor, preparation method therefor and use thereof” (HINOVA PHARMACEUTICALS INC., priority 2018, dated 2023)

What was measured:
[1] = molecular target: IDO1 protease activity in Hela cells (Homo sapiens (Human), UniProt P14902); assay: Inhibition of IDO protease in HeLa cells (IDO/kynurenine experiment, IFN-γ induced); type: cell-based; settings: 10 ng/mL IFN-γ, 48 h, OD480 nm, read-out: IC50, inhibitory activity against IDO1 protease activity in Hela cells
Method: 2) Experimental Method for Compound Assay 2.1 Seeding HeLa Cells into 96 Well Plate
The medium was taken out from the flask and the cells were washed with PBS. TrypLE solution was added to the flask to make the cells separate. The cells were further washed once with fresh medium containing 10% FBS, and then re-suspended in the medium until the final concentration was 2.3×10^6/mL. Only cells with activity greater than 90% can be used for detection. HeLa cells were planted into 100 μL suitable growth median 96 well plate at 3000 cells/well. The cells were incubated at 37° C. under 5% CO2 overnight.
The compound was diluted to the concentration of 10 mM with DMSO, that was then continuously diluted 3 times to get 9 concentrations. 5 μL compound was added into 45 μL media as the median dilution (10 times dilution, containing 10% DMSO). 96 μL fresh growth media were added to each well to reach the total volume of 196 μL. 2 μL compound solution was taken from the mid-diluted solution and added to the cells in the wells of the assay plate, and then incubated in a 5% CO2 incubator at 37° C. for 30 minutes. 2 μL human IFN-γ solution was added to reach a total volume of 200 μL, with the final concentration of 10 ng/mL, and the final concentration is 0.1%. The cells were incubated in 5% CO2 incubator at 37° C. for 48 h.
After incubating for another 48 hours in a 5% CO2 incubator at 37° C., 140 μL supernatant was added to each well and transferred to a new 96-well plate. 10 μL of 6.1N CCl3COOH was further added to each well, and incubated at 50° C. for 30 min after sealing. The plate was then centrifuged at 2500 rpm for 10 minutes. 100 μL supernatant in each well was transferred to another 96-well assay plate and mixed with 100 μL of 6% (w/v) p-dimethylaminobenzaldehyde. EnSpire was used to read the plate at OD480 nm.
The average data of HC (high control: 10 ng/mL IFN-γ) and LC (low control: no IFN-γ) were calculated for each screening plate. Percent inhibition of compound well (% inh)=100*(aveHC−cpd well)/(aveHC−ave LC). Finally, GraphPad Prism 6 software was used to calculate the IC50 values of compounds and draw the effect-concentration curve.

human IDO1 protease = human IDO1 protease (Homo sapiens (Human), UniProt P14902); assay: Inhibitory activity against human IDO1 protease (absorbance test method); type: biochemical; settings: IDO1 (His-tag) enzyme, absorbance at 320 nm
Method: IDO1 (His-tag) enzyme(BPS Bioscience), L-tryptophan (Sigma), methylene blue (Sigma), Catalase originated from the liver of cattle (Sigma), L-ascorbic acid (Sigma), glycerol (Sigma), potassium dihydrogen phosphate solution (Sigma), Tween 20 (Sigma), automatic sampling platformLiquid handler (Bravo & Echo), microplate ReaderSpectraMax M5e (Molecular Devices).
2) Test Method of Compounds: The Compounds are Determined by Absorbance Test Method:
The tested compounds are dissolved in DMSO to prepare a high concentration of storage solution. The stock solution of reference compound was diluted with DMSO to prepare a 100× solution. In the first column of the working plate, 8 μL above tested compounds and 8 μL 100× reference compound were respectively added as the highest concentration, and then the highest concentrations were subjected to three times dilution to obtain 11 concentrations and prepare 100× solution. 0.5 μL solution was transferred from the above plate to the detection plate. To each well was added 0.5 μL 100× compound solution. For HPE and ZPE control wells, 0.5 μL 100% DMSO was added. 25 μL 2×IDO1 (His-tag) enzyme solution (containing L-ascorbic acid, methylene blue, and catalase) was added to each well. 25 μL reaction solution without IDO1 (His-tag) enzyme was added into HPE control well. The test plate was centrifugated at 1000 rpm for 1 minute to mix well. Then, the test plate was incubated at room temperature for 30 minutes. 25 μL above 2× substrate (L-tryptophan) solution was added to each well. The test plate was centrifugated at 1000 rpm for 1 minute to mix well. The detection plate was placed on ELISA (SpectraMax M5e), the temperature was set at 25° C., and the absorbance (OD value) was measured at 320 nm every 10 minutes till 60 minutes.
Calculating the increase ratio of absorbance: the slope of the absorbance increase curve from 10 min to 60 min is derived from SpectralMax M5e. The inhibition coefficient of compound was calculated: the inhibition ratio of compound=(the absorbance increase ratio of ZPE control well−the absorbance increase ratio of compound well)/(the absorbance increase ratio of ZPE control well−the absorbance increase ratio of HPE control well)×100. Results was analyzed by Prism 5.0.

IDO1 protease activity in Hela cells, sequence (P14902 whole entry): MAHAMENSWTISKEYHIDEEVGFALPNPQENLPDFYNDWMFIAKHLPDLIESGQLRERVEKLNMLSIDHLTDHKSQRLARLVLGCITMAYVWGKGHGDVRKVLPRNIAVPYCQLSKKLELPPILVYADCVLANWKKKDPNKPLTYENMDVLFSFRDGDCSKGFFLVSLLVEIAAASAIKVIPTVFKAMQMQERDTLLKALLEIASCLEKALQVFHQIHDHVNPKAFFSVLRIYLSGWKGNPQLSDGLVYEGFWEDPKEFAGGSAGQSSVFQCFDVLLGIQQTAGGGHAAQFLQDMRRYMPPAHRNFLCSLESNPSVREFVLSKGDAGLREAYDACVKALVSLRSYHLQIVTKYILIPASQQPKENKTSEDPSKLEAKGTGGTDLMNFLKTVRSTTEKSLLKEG
human IDO1 protease, sequence (P14902 whole entry): as above

Compound | IC50 [1] | IC50 (human IDO1 protease) | IC50 (human IDO1 protease; listed as 11)
CNS(=O)(=O)CCNc1nonc1C(=NO)Nc1ccc(F)c(Br)c1 [Example 2, N-(3-bromo-4-fluorophenyl)-N′-hydroxyl-4-((2-(N-methylsulfamoyl)ethyl)amino)-1,2,5-oxadiazol-3-formamidine] | 19 nM | 54 nM | 
CCNS(=O)(=O)CCNc1nonc1C(=NO)Nc1ccc(F)c(Br)c1 [Example 3, N-(3-bromo-4-fluorophenyl)-N′-hydroxyl-4-((2-(N-ethylsulfamoyl)ethyl)amino)-1,2,5-oxadiazol-3-formamidine] | 35 nM | 74 nM | 
CC(C)NS(=O)(=O)CCNc1nonc1C(=NO)Nc1ccc(F)c(Br)c1 [Example 4, N-(3-bromo-4-fluorophenyl)-N′-hydroxyl-4-((2-(isopropylsulfamoyl)ethyl)amino)-1,2,5-oxadiazol-3-formamidine] |  | 185 nM | 
O=S(=O)(CCNc1nonc1C(=NO)Nc1ccc(F)c(Br)c1)NCCO [Example 5, N-(3-bromo-4-fluorophenyl)-N′-hydroxyl-4-((2-(N-(2-hydroxylethyl)sulfamoyl)ethyl)amino)-1,2,5-oxadiazol-3-formamidine] | 15 nM | 49 nM | 
O=S(=O)(CCNc1nonc1/C(=N/O)Nc1ccc(F)c(Br)c1)NCC(F)F [Example 6] |  | 87 nM | 44 nM
CN(C)S(=O)(=O)CCNc1nonc1/C(=N/O)Nc1ccc(F)c(Br)c1 [Example 7, N-(3-bromo-4-fluorophenyl)-N′-hydroxyl-4-((2-N,N-dimethylsulfamoylethyl)amino)-1,2,5-oxadiazol-3-formamidine] |  | 115 nM | 
CC(C)NS(=O)(=O)CCCNc1nonc1/C(=N/O)Nc1ccc(F)c(Br)c1 [Example 13, N-(3-bromo-4-fluorophenyl)-N′-hydroxyl-4-((3-(N-isopropylsulfamoyl)propyl)amino)-1,2,5-oxadiazol-3-formamidine] | 30 nM | 63 nM | 
O=S(=O)(CCCNc1nonc1C(=NO)Nc1ccc(F)c(Br)c1)NC1CC1 [Example 14, N-(3-bromo-4-fluorophenyl)-N′-hydroxyl-4-((3-(N-cyclopropylsulfamoyl)propyl)amino)-1,2,5-oxadiazol-3-formamidine] | 37 nM | 99 nM | 
O=S(=O)(CCCNc1nonc1C(=NO)Nc1ccc(F)c(Br)c1)NCCO [Example 16, N-(3-bromo-4-fluorophenyl)-N′-hydroxyl-4-((3-(N-(2-hydroxylethyl)sulfamoyl)propyl)amino)-1,2,5-oxadiazol-3-formamidine] | 32 nM | 51 nM | 
CCNS(=O)(=O)CCCNc1nonc1C(=NO)Nc1ccc(F)c(Br)c1 [Example 17, N-(3-bromo-4-fluorophenyl)-N′-hydroxyl-4-((3-(N-ethylsulfamoyl)propyl)amino)-1,2,5-oxadiazol-3-formamidine] | 10 nM |  | 
CONS(=O)(=O)CCCNc1nonc1C(=NO)Nc1ccc(F)c(Br)c1 [Example 20, N-(3-bromo-4-fluorophenyl)-N′-hydroxyl-4-((3-(N-methoxylsulfamoyl)propyl)amino)-1,2,5-oxadiazol-3-formamidine] |  | 99 nM | 
N-(3-bromo-4-fluorophenyl)-N′-hydroxyl-4-((2-(morpholinylsulfamoyl)ethyl)amino)-1,2,5-oxadiazol-3-formamidine [Example 9] |  | 162 nM | 

More lines, main results first:

IC50 [1] | IC50 (human IDO1 protease) | Compound | IC50 (human IDO1 protease; listed as 11)
 | 99 nM | O=S(=O)(CCCNc1nonc1C(=NO)Nc1ccc(F)c(Br)c1)NO [Example 21, N-(3-bromo-4-fluorophenyl)-N′-hydroxyl-4-((3-(N-hydroxylsulfamoyl)propyl)amino)-1,2,5-oxadiazol-3-formamidine] | 
93 nM |  | O=S(=O)(CCCCNc1nonc1/C(=N/O)Nc1ccc(F)c(Br)c1)N1CCC1 [Example 25, 4-((4-(azetidin-1-ylsulfonyl)butyl)amino)-N-(3-bromo-4-fluorophenyl)-N′-hydroxyl-1,2,5-diazol-3-formamidine] | 
113 nM |  | O=S(=O)(CCCCNc1nonc1/C(=N/O)Nc1ccc(F)c(Br)c1)N1CC(F)C1 [Example 26, N-(3-bromo-4-fluorophenyl)-4-((4-((3-fluorazetidin-1-yl)sulfonyl)butyl)amino)-N′-hydroxyl-1,2,5-oxadiazol-3-amide] | 
16 nM | 106 nM | [2H]C([2H])([2H])N(C([2H])([2H])[2H])S(=O)(=O)CCCNc1nonc1/C(=N/O)Nc1ccc(F)c(Br)c1 [Example 28] | 
20 nM |  | [2H]C([2H])([2H])NS(=O)(=O)CCCCNc1nonc1/C(=N/O)Nc1ccc(F)c(Br)c1 [Example 29, N-(3-bromo-4-fluorophenyl)-N′-hydroxyl-4-((4-(N-deuteratedmethylsulfamoyl)butyl)amino)-1,2,5-oxadiazol-3-formamidine] | 
24 nM |  | [2H]C([2H])([2H])N(C([2H])([2H])[2H])S(=O)(=O)CCCCNc1nonc1/C(=N/O)Nc1ccc(F)c(Br)c1 [Example 30] | 
68 nM |  | NS(=O)(=O)CCOCCNc1nonc1/C(=N/O)Nc1ccc(F)c(Br)c1 [Example 31, N-(3-bromo-4-fluorophenyl)-N′-hydroxyl-4-(2-(2-aminosulfonylethoxyl)-ethylamine)-1,2,5-diazol-3-formamidine] | 
17 nM |  | [2H]C([2H])([2H])NS(=O)(=O)CCCSc1nonc1/C(=N/O)Nc1ccc(F)c(Br)c1 [Example 32] | 
69 nM |  | [2H]C([2H])([2H])NS(=O)(=O)CCCSc1nonc1/C(=N/O)Nc1cccc(Br)c1F [Example 33, N-(3-bromo-2-fluorophenyl)-N′-hydroxyl-4-((3-(N-trideuteratedmethylsulfamoyl)propyl)sulfur)-1,2,5-oxadiazol-3-formamidine] | 
